From patent publication US4943570A, “Benzimidazolesulfonamides and imidazopyridinesulfonamides, and their application as drugs” (Laboratorios Del Dr. Esteve, S.A., priority 1986, dated 1990)

How the values were obtained:
[1] = Acute toxicity in mice (Litchfield and Wilcoxon); type: in vivo; conditions: mouse, in vivo, po, administered orally
Experimental: (§1) Method of Litchfield and Wilcoxon (J. T. Litchfield and E. J. Wilcoxon: J. Pharmacol. Exp. Therap., 96, 19-113 (1949)).
(§2) The product is administered orally as a suspension in gum arabic at a concentration of 5% in double-distilled water. The volume administered is 10 - ml/kg. The 50% lethal dose (LD50) is calculated by the method cited.

gastric acid secretion = test: Inhibition of gastric acid secretion in Shay rats (Shay's method, pylorus ligation); type: in vivo, Male Wistar rats; conditions: Rattus norvegicus, administered intraduodenally; for ED50: 2 h; for inhibition in vivo at 40 mg/kg: intraduodenal, 2 h after pylorus ligation, read-out: Percentage inhibition of gastric acid secretion
Source text: Shay's method [H. Shay; S. A. Komarov; S. S. Fels; D. Merange: M. Grvenstein; H. Siplet: Gastroenterology, 5, 43 (1945)--F. E. Visscber; P. H. Seay: A. P. Taxelaar; W. Veldkamp; M. J. Vander Brook: J. Pharmac. Exp. Ther., 110, 188 (1954)--"Animal Experiments in Pharmacological Analysis", F. R. Domer: C. C. Thomas, published by Springfield, Ill., U.S.A., 1970, p. 140].
Male Wistar rats weighing 200 to 250 grams are used in this test; they are fasted from the day preceding the day of the test, with free access to water. Groups containing a minimum of 4 animals each are used.
The rats are anesthetized with ethyl ether, a laparotomy is performed on them and their pylorus is ligated; the abdominal incision is then sewn up. The administration of the products, with the vehicle for the control group, is effected intraduodenally (i.d.) before the abdominal incision is sewn up. The dose administered in the first test is 40 mg/kg and the 50% effective dose (ED50), administered intraduodenally, is also determined in a second test. The vehicle used is gum arabic at a concentration of 5% w/v in double-distilled water.
Two hours after ligation of the pylorus, the rats are sacrificed by prolonged anesthesia with ethyl ether and the volume of gastric juice is measured; the total acidity is determined by means of a pH meter equipped with an automatic burette. For each product and each dose tested, the percentage inhibition of gastric acid secretion is determined relative to the control group.

[2] = system: gastric lesions induced by ethanol; test: Gastric cytoprotection: inhibition of gastric lesions induced by ethanol; type: in vivo, Male Wistar rats; conditions: 40 mg/kg oral
Experimental: Male Wistar rats weighing 150 to 200 grams are used in this test; they are fasted for 24 hours, but with water "ad libitum". Groups containing a minimum of 5 animals each are used.
At the beginning of the study, the rats receive the products described, or the vehicle in the case of the rats in the control group, by oral administration using a stomach tube. The dose administered for the products described is 40 mg/kg. The vehicle employed is gum arabic at a concentration of 5% w/v in double-distilled water.
Thirty minutes after the treatment, the rats receive 1 ml of absolute ethanol by oral administration using a stomach tube. One hour after the treatment with ethanol, the rats are sacrificed by prolonged anesthesia with ethyl ether, their stomachs are extracted and opened along the greater curvature and the lesions in the stomach mucosa are evaluated. For this evaluation, the hemorrhage points are counted and the size of the necrotic ulcers is measured.
For each product tested, the percentage inhibition of gastric lesions is determined relative to the control group.

[3] = system: gastric lesions induced by stress due to immobilization and cold; test: Ulcer-inhibiting activity: inhibition of gastric lesions induced by stress due to immobilization and cold; type: in vivo, Male Wistar rats; conditions: 40 mg/kg oral
Experimental: Male Wistar rats weighing […] to 200 grams are used in this test; they are fasted in individual cages for 24 hours before the study begins, but with water "ad libitum". Groups containing a minimum of 5 animals each are used.
At the start of the study, the rats receive the products described, or alternatively the vehicle in the case of the control group, by oral administration using a stomach tube. The administered dose of the products described is 40 mg/kg. The vehicle used is gum arabic at a concentration of 5% w/v in double-distilled water.
Immediately after the treatment, the rats are introduced into confined enclosures in the form of a plastic tube with a diameter of about 5 cm and a variable length which can be adapted to the size of the rat. One hour after the treatment, the rats, in their enclosures, are placed in a refrigerator at -5° C. for 3 hours. Immediately after exposure to the cold, the rats are killed by prolonged anesthesia with ethyl ether, the stomachs are extracted and opened along the greater curvature and the lesions in the stomach mucosa are evaluated. For this evaluation, the hemorrhage points are counted and the size of the necrotic ulcers is measured.
For each product and each dose tested, the percentage inhibition of gastric lesions is determined relative to the control group.

mice = test: Acute toxicity in mice (Litchfield and Wilcoxon); type: in vivo; conditions: administered orally; female
Experimental: as §1, §2

[4] = relative to control (gum arabic)

Row | SMILES | LD50 ([1]; female) | LD50 ([1]; male) | ED50 (gastric acid secretion) | inhibition in vivo at 40 mg/kg (gastric acid secretion) | other results
1 | O=S(=O)(NCCN1CCOCC1)c1nc2ccccc2[nH]1 [Example 6] | 2600 mg/kg | 3300 mg/kg |  |  | 
2 | O=S(=O)(NCCCN1CCOCC1)c1nc2ccccc2[nH]1 [Example 8, N-[3-(4-Morpholinopropyl)]-1H-benzimidazole-2-sulfonamide] | 6400 mg/kg | 6400 mg/kg |  |  | 
3 | O=S(=O)(Nc1ccc(Cl)cc1)c1nc2cc(Cl)ccc2[nH]1 [Example 16, 5-Chloro-N-(4-chlorophenyl)-1H-benzimidazoIe-2-sulfonamide] | 1500 mg/kg | 2000 mg/kg | 42.6 mg/kg | 48% | 
4 | CCN(CC)CCCC(C)NS(=O)(=O)c1nc2cc(Cl)ccc2[nH]1 (stereo not shown) [Example 18, 5-Chloro-N-(4-diethylamino-1-methylbutyl)-1H-benzimidazole-2-sulfonamide] | 4000 mg/kg | 2000 mg/kg | 53.5 mg/kg | 41% | 
5 | CCNS(=O)(=O)c1nc2c([N+](=O)[O-])cccc2[nH]1 [Example 21, N-Ethyl-4-nitro-1H-benzimidazole-2-sulfonamide] | > 1600 mg/kg | > 1600 mg/kg |  |  | 
6 | O=S(=O)(NCc1ccccn1)c1nc2ccccc2[nH]1 [Example 31, N-(2-Pyridylmethyl)-1H-benzimidazole-2-sulfonamide] | > 6400 mg/kg | > 6400 mg/kg |  |  | 
7 | NS(=O)(=O)c1nc2cc([N+](=O)[O-])ccc2[nH]1 [Example 34, 5-Nitro-1H-benzimidazole-2-sulfonamide] | > 6400 mg/kg | > 6400 mg/kg | 29.9 mg/kg | 63% | 
8 | O=[N+]([O-])c1ccc2[nH]c(S(=O)(=O)NCCCN3CCOCC3)nc2c1 [Example 38, N-[3-(4-Morpholinopropyl)]-5-nitro-1H-benzimidazole-2-sulfonamide] | > 6400 mg/kg | > 6400 mg/kg |  |  | 
9 | CCN(CC)S(=O)(=O)c1nc2ccc([N+](=O)[O-])cc2n1CC [Example 71, 6-nitro-1,N,N-triethyl-1H-benzimidazole-2-sulfonamide] | 6400 mg/kg | 6400 mg/kg |  |  | 
10 | O=S1(=O)c2nc3ccccc3n2CCN1CCCN1CCOCC1 [Example 92] | 6400 mg/kg | 6400 mg/kg |  |  | 
11 | COc1ccc(CCN2CCn3c(nc4ccccc43)S2(=O)=O)cc1OC [Example 99, 3,4-Dihydro-2H-2-[2-(3,4-dimethoxyphenylethyl)]-[1,2,5]-thiadiazino[5,6-a]benzimidazole 1,1-dioxide] | > 3200 mg/kg | > 3200 mg/kg |  |  | 
12 | CCN1CCn2c(nc3ccc([N+](=O)[O-])cc32)S1(=O)=O [Example 127, 3,4-Dihydro-2H-2-ethyl-7-nitro-[1,2,5]-thiadiazino-[5,6-a]benzimidazole 1,1-dioxide] | > 6400 mg/kg | > 6400 mg/kg | 52.4 mg/kg | 56.3% | 
13 | CCN1CCn2c(nc3cc([N+](=O)[O-])ccc32)S1(=O)=O [Example 128, 3,4-Dihydro-2H-2-ethyl-8-nitro-[1,2,5]-thiadiazino-[5,6-a]benzimidazole 1,1-dioxide] | > 3200 mg/kg | > 2200 mg/kg |  |  | 
14 | CCCCN1CCn2c(nc3cc([N+](=O)[O-])ccc32)S1(=O)=O [Example 133, 2H-2-Butyl-3,4-dihydro-8-nitro-[1,2,5]-thiadiazino-[5,6-a]benzimidazole 1,1-dioxide] | > 3200 mg/kg | > 3200 mg/kg | 58.3 mg/kg | 40% | 
15 | CCCCN1CCn2c(nc3ccc([N+](=O)[O-])cc32)S1(=O)=O [Example 134, 2H-2-butyl-3,4-dihydro-7-nitro-[1,2,5]-thiadiazino[5,6-a]benzimidazole 1,1-dioxide] | > 3200 mg/kg | > 3200 mg/kg | 20.7 mg/kg | 70.3% | 
16 | O=[N+]([O-])c1ccc2nc3n(c2c1)CCN(CCCN1CCOCC1)S3(=O)=O [Example 142] |  |  | 17.5 mg/kg | 79.4% | Evaluation of the lesions (x ± standard deviation) [2]: 0; Inhibition of gastric lesions [2, 4]: 100%
17 | CCN(CC)CCCC(C)N1CCn2c(nc3ccc([N+](=O)[O-])cc32)S1(=O)=O (stereo not shown) [Example 144, 2H-2-(4-Diethylamino-1-methylbutyl)-3,4-dihydro-7-nitro-[1,2,5,]-thiadiazino[5,6-a]benzimidazole 1,1-dioxide] |  |  | 10 mg/kg | 93.7% | Inhibition of gastric lesions [3, 4]: 100%; Evaluation of the lesions (x ± standard deviation) ([3]; stress (immobilization and cold), 10 rats): 0
18 | CCN1C(C)Cn2c(nc3ccccc32)S1(=O)=O (stereo not shown) [Example 170, 3,4-Dihydro-2H-2-ethyl-3-methyl-[1,2,5]-thiadiazino[5,6-a]benzimidazole 1,1-dioxide] |  |  | 21.8 mg/kg | 73.2% | 
19 | CCCCN1CCn2c(nc3cccnc32)S1(=O)=O [Example 173, 2H-2-Butyl-3,4-Dihydropyrido[3', 2':4,5]imidazo[1,2-e]-[1,2,5]-thiadiazine 1,1-dioxide] |  |  | 39.2 mg/kg | 57.1% | 
20 | CCN1C(c2ccccc2)=Cn2c(nc3ccccc32)S1(=O)=O [Example 177, 2H-2-ethyl-3-phenyl-[1,2,5]-thiadiazino[5,6-a]benzimidazole 1,1-dioxide] |  |  | 38.1 mg/kg | 53.7% | 
21 | CCN1C(c2ccc([N+](=O)[O-])cc2)=Cn2c(nc3ccc([N+](=O)[O-])cc32)S1(=O)=O [Example 179, 2H-2-Ethyl-7-nitro-3-(4-nitrophenyl)-[1,2,5]-thiadiazino-[5,6-a]benzimidazole 1,1-dioxide] |  | > 6400 mg/kg |  |  | LD50 (mice): > 6400 mg/kg
22 | O=S1(=O)c2nc3ccccc3n2CC2CCCCN21 (stereo not shown) [Example 180, 1,2,3,4,13,14-hexahydropyrido-[1',2':2,3]-[1,2,5]-thiadiazino[5,6-a]-benzimidazole 6,6-dioxide] |  |  | 43.7 mg/kg | 43.8% | 
23 | O=[N+]([O-])c1ccc2c(c1)nc1n2CC2CCCCN2S1(=O)=O (stereo not shown) [Example 181, 1,2,3,4,13,14-Hexahydro-9-nitropyrido[1',2':2,3]-[1,2,5-thiadiazino5,6-a]benzimidazole 6,6-dioxide] |  |  | 62 mg/kg | 43.4% | 
24 | O=[N+]([O-])c1ccc2nc3n(c2c1)CC1CCCCN1S3(=O)=O (stereo not shown) [Example 182, 1,2,3,4,13,14-Hexahydro-10-nitropyrido[1',2':2,3]-[1,2,5]-thiadiazino[5,6-a]benzimidazole 6,6-dioxide] |  |  | 61.2 mg/kg | 42.1% | 
